Measurements from patent US20060069132A1, “Azolecarboxamide herbicides” (priority 2004, published 2006).

Tests used:
barnyardgrass [1] = assay: Test B pre-/postemergence herbicide test; type: in vivo, Echinochloa crus-galli
Procedure, shortened: (§1)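 Evaluation is visual, comparing treated with control plants on a scale where 0 means no effect and 100 means full control. Treatments were preemergence, or postemergence on seedlings 2–18 cm tall, and held 13–15 days in the greenhouse.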

Surinam grass = assay: Test B pre-/postemergence herbicide test; type: in vivo, Urochloa decumbens
Procedure, shortened: (§2)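 Test chemicals in a non-phytotoxic solvent mixture with surfactant were applied preemergence to seeded species and postemergence to plants 2-18 cm tall (1- to 4-leaf stage); rice and barnyardgrass were also tested in a flooded paddy at the 2-leaf stage. Visual rating versus controls after 13-15 days in greenhouse, scale 0 (no effect) to 100 (complete control).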

cocklebur = assay: Test B pre-/postemergence herbicide test; type: in vivo, Xanthium strumarium
Procedure, shortened: as §1

corn = assay: Test B pre-/postemergence herbicide test; type: in vivo, Zea mays
Procedure, shortened: as §2

large crabgrass = assay: Test B pre-/postemergence herbicide test; type: in vivo, Digitaria sanguinalis
Procedure, shortened: as §2

giant foxtail = assay: Test B pre-/postemergence herbicide test; type: in vivo, Setaria faberi
Procedure, shortened: as §2

lambsquarters = assay: Test B pre-/postemergence herbicide test; type: in vivo, Chenopodium album
Procedure, shortened: as §2

morningglory = assay: Test B pre-/postemergence herbicide test; type: in vivo, Ipomoea coccinea
Procedure, shortened: as §1

pigweed = assay: Test B pre-/postemergence herbicide test; type: in vivo, Amaranthus retroflexus
Procedure, shortened: as §2

velvetleaf = assay: Test B pre-/postemergence herbicide test; type: in vivo, Abutilon theophrasti
Procedure, shortened: as §2

blackgrass = assay: Test B postemergence herbicide test; type: in vivo, Alopecurus myosuroides
Procedure, shortened: (§3)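 Each value is a visual 0–100 response rating taken against controls 13 to 15 days after treatment in the greenhouse. Plants received formulated chemical postemergence at the 1- to 4-leaf stage or, in flooded paddy, at the 2-leaf stage.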

wheat = assay: Test B postemergence herbicide test; type: in vivo, Triticum aestivum; parameters: key to Wheat plant response rating: 0 = no effect, 100 = complete control
Procedure, shortened: as §3

wild oat = assay: Test B postemergence herbicide test; type: in vivo, Avena fatua
Procedure, shortened: as §3

rice [2] = assay: Test B flooded paddy test; type: in vivo, Oryza sativa; settings: 1000 g ai/ha, scale 0 to 100 (0 no effect, 100 complete control)
Procedure, shortened: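 Paddy species grown to the 2-leaf stage under flooding; blackgrass sprayed postemergence at 2–18 cm (1- to 4-leaf stage). Plants kept in a greenhouse for 13 to 15 days, then visually rated against controls on 0 (no effect) to 100 (complete control).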

[3] = system: small flower umbrella sedge; assay: Test B flooded paddy test; type: in vivo, Cyperus difformis; settings: 1000 g ai/ha, scale 0 to 100 (0 no effect, 100 complete control)
Procedure, shortened: as §3

ducksalad [4] = assay: Test B flooded paddy test; type: in vivo, Heteranthera limosa; settings: 1000 g ai/ha, scale 0 to 100 (0 no effect, 100 complete control)
Procedure, shortened: as §3

barnyardgrass [5] = assay: Test B flooded paddy test; type: in vivo, Echinochloa crus-galli; settings: 1000 g ai/ha, scale 0 to 100 (0 no effect, 100 complete control)
Procedure, shortened: as §3

rice [6] = assay: Test C flooded paddy test; type: in vivo, Oryza sativa; settings: for Plant response rating, Rice: 500 g ai/ha, visual rating after 12 to 14 days
Procedure, shortened: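 Plants were grown to the 1- to 4-leaf stage (2–18 cm) and then treated postemergence, or grown to the 2-leaf stage for the flooded paddy test. They were held in a greenhouse for 12 to 14 days and then scored by eye against controls, where 0 is no effect and 100 is complete control.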

[7] = system: smallflower umbrella sedge; assay: Test C flooded paddy test; type: in vivo, Cyperus difformis; settings: for Plant response rating, Sedge, Umbrella: 500 g ai/ha, visual rating after 12 to 14 days
ducksalad [8] = assay: Test C flooded paddy test; type: in vivo, Heteranthera limosa; settings: for Plant response rating, Ducksalad: 500 g ai/ha, visual rating after 12 to 14 days
barnyardgrass [9] = assay: Test C flooded paddy test; type: in vivo, Echinochloa crus-galli; settings: for Plant response rating, Barnyardgrass: 500 g ai/ha, visual rating after 12 to 14 days
Procedure, shortened: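 Ratings (0 = no effect, 100 = complete control) come from visual comparison with untreated plants after 12 to 14 days in the greenhouse. Treatment was postemergence at the 1- to 4-leaf stage (2–18 cm), or at the 2-leaf stage for the flooded paddy barnyardgrass.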

[10] = 125 g ai/ha; 0 is no effect, 100 is complete control; preemergence
[11] = 125 g ai/ha; visual rating, scale 0 (no effect) to 100 (complete control); postemergence
[12] = 500 g ai/ha; visual rating, 0 = no effect, 100 = complete control; preemergence
[13] = postemergence, 500 g ai/ha; scale 0 to 100, 0 is no effect, 100 is complete control
[14] = 125 g ai/ha, scale 0 to 100 (0 no effect, 100 complete control)
[15] = 250 g ai/ha, scale of 0 to 100, 0 is no effect, 100 is complete control
[16] = scale 0 to 100 (0 no effect, 100 complete control)
[17] = 62 g ai/ha, scale 0 to 100 (0 no effect, 100 complete control)
[18] = 500 g ai/ha; visual rating 0-100, 0 no effect, 100 complete control; preemergence
[19] = postemergence, 125 g ai/ha; visual rating, scale 0 (no effect) to 100 (complete control)
[20] = postemergence, 500 g ai/ha; visual rating, scale 0 (no effect) to 100 (complete control)
[21] = preemergence, 125 g ai/ha; 0 to 100 scale, 0 is no effect, 100 is complete control

CCNC(=O)c1cccc(NC(=O)c2nn(C(C)C)nc2CC)c1 [Compound 357]
95: Plant response rating, Sedge, Umbrella [7, 16] | Plant response rating, Ducksalad (ducksalad [8]; [16])
10: Barnyardgrass plant response rating (barnyardgrass [1]; [13]) | Surinam Grass plant response rating (Surinam grass; [11]) | Cocklebur plant response rating (cocklebur; [11]) | Crabgrass, Large plant response rating (large crabgrass; [13]) | Plant response rating (0 to 100 scale), Morningglory (morningglory; [10]) | Morningglory plant response rating (morningglory; [11])
20: Surinam Grass plant response rating (Surinam grass; [13]) | Cocklebur plant response rating (cocklebur; [13]) | Corn plant response rating (corn; [13]) | Plant response rating (0 to 100 scale), Foxtail, Giant (giant foxtail; [10]) | Pigweed plant response rating (pigweed; [11]) | Velvetleaf plant response rating (velvetleaf; [11]) | Velvetleaf plant response rating (velvetleaf; [13])
55: Plant response rating, Barnyardgrass (barnyardgrass [9]; [16])
90: Plant response rating (0 to 100 scale), Lambsquarters (lambsquarters; [10]) | Sedge, Umbrella plant response rating [7, 15]
45: Rice plant response rating (rice [6]; [15]) | Ducksalad plant response rating (ducksalad [8]; [15])
30: Plant response rating (0 to 100 scale), Barnyardgrass (barnyardgrass [1]; [10]) | Plant response rating (0 to 100 scale), Surinam Grass (Surinam grass; [10]) | Plant response rating, Cocklebur (cocklebur; [12]) | Foxtail, Giant plant response rating (giant foxtail; [11]) | Lambsquarters plant response rating (lambsquarters; [11]) | Morningglory plant response rating (morningglory; [13]) | Blackgrass plant response rating (blackgrass; [13]) | Oat, Wild plant response rating (wild oat; [13]) | Ducksalad plant response rating (ducksalad [8]; 62 g ai/ha, scale 0 to 100) | Ducksalad plant response rating (ducksalad [8]; [14]) | Barnyardgrass plant response rating (barnyardgrass [9]; [15])
40: Foxtail, Giant plant response rating (giant foxtail; [13]) | Pigweed plant response rating (pigweed; [13]) | Sedge, Umbrella plant response rating ([7]; 62 g ai/ha, scale 0 to 100)
100: Plant response rating, Crabgrass, Large (large crabgrass; [12]) | Plant response rating, Foxtail, Giant (giant foxtail; [12]) | Plant response rating, Lambsquarters (lambsquarters; [12]) | Plant response rating (0 to 100 scale), Pigweed (pigweed; [10]) | Plant response rating, Pigweed (pigweed; [12])
0: Barnyardgrass plant response rating (barnyardgrass [1]; [11]) | Plant response rating (0 to 100 scale), Cocklebur (cocklebur; [10]) | Plant response rating (0 to 100 scale), Corn (corn; [10]) | Corn plant response rating (corn; [11]) | Crabgrass, Large plant response rating (large crabgrass; [11]) | Plant response rating (0 to 100 scale), Velvetleaf (velvetleaf; [10]) | Blackgrass plant response rating (blackgrass; [11]) | Wheat plant response rating (wheat; [11]) | Wheat plant response rating (wheat; [13]) | Oat, Wild plant response rating (wild oat; [11]) | Rice plant response rating (rice [6]; 62 g ai/ha, scale 0 to 100) | Rice plant response rating (rice [6]; [14]) | Barnyardgrass plant response rating (barnyardgrass [9]; [17]) | Barnyardgrass plant response rating (barnyardgrass [9]; [14])
70: Plant response rating (0 to 100 scale), Crabgrass, Large (large crabgrass; [10]) | Plant response rating, Morningglory (morningglory; [12]) | Rice plant response rating (rice [2]) | Barnyardgrass plant response rating (barnyardgrass [5]) | Plant response rating, Rice (rice [6]; [16])
85: Sedge, Umbrella plant response rating [7, 14]
60: Lambsquarters plant response rating (lambsquarters; [13])
80: Plant response rating, Barnyardgrass (barnyardgrass [1]; [12]) | Plant response rating, Surinam Grass (Surinam grass; [12]) | Plant response rating, Corn (corn; [12]) | Sedge, Umbrella plant response rating [3] | Ducksalad plant response rating (ducksalad [4])

CC(=O)c1cccc(NC(=O)c2cc(C(C)(C)C)nn2CC(F)(F)F)c1 [Compound 126]
90: Plant response rating, Lambsquarters (lambsquarters; [18])
100: Cocklebur plant response rating (cocklebur; [20])
60: Plant response rating, Barnyardgrass (barnyardgrass [1]; [18]) | Lambsquarters plant response rating (lambsquarters; [20])
0: Barnyardgrass plant response rating (barnyardgrass [1]; [19]) | Plant response rating, Surinam Grass (Surinam grass; [21]) | Plant response rating, Cocklebur (cocklebur; [18]) | Plant response rating, Cocklebur (cocklebur; [21]) | Plant response rating, Corn (corn; [18]) | Corn plant response rating (corn; [19]) | Plant response rating, Corn (corn; [21]) | Plant response rating, Crabgrass, Large (large crabgrass; [21]) | Plant response rating, Foxtail, Giant (giant foxtail; [18]) | Plant response rating, Foxtail, Giant (giant foxtail; [21]) | Lambsquarters plant response rating (lambsquarters; [19]) | Plant response rating, Lambsquarters (lambsquarters; [21]) | Morningglory plant response rating (morningglory; [19]) | Plant response rating, Morningglory (morningglory; [21]) | Plant response rating, Pigweed (pigweed; [21]) | Velvetleaf plant response rating (velvetleaf; [19]) | Plant response rating, Velvetleaf (velvetleaf; [21]) | Blackgrass plant response rating (blackgrass; [19]) | Blackgrass plant response rating (blackgrass; [20]) | Wheat plant response rating (wheat; [19]) | Wheat plant response rating (wheat; [20]) | Rice plant response rating (rice [6]; [17]) | Rice plant response rating (rice [6]; [14]) | Rice plant response rating (rice [6]; [15]) | Plant response rating, Rice (rice [6]; [16]) | Sedge, Umbrella plant response rating [7, 17] | Ducksalad plant response rating (ducksalad [8]; [17]) | Barnyardgrass plant response rating (barnyardgrass [9]; [17]) | Barnyardgrass plant response rating (barnyardgrass [9]; 125 g ai/ha, scale of 0 to 100, 0 is no effect, 100 is complete control)
20: Plant response rating, Surinam Grass (Surinam grass; [18]) | Surinam Grass plant response rating (Surinam grass; [19]) | Surinam Grass plant response rating (Surinam grass; [20]) | Corn plant response rating (corn; [20]) | Foxtail, Giant plant response rating (giant foxtail; [19]) | Plant response rating, Morningglory (morningglory; [18]) | Plant response rating, Velvetleaf (velvetleaf; [18]) | Rice plant response rating (rice [2]; visual rating, 13 to 15 days) | Sedge, Umbrella plant response rating [7, 14] | Sedge, Umbrella plant response rating [7, 15] | Barnyardgrass plant response rating (barnyardgrass [9]; [15])
25: Ducksalad plant response rating (ducksalad [8]; [15]) | Plant response rating, Barnyardgrass (barnyardgrass [9]; [16])
80: Sedge, Umbrella plant response rating ([3]; visual rating, 13 to 15 days) | Ducksalad plant response rating (ducksalad [4]; visual rating, 13 to 15 days)
50: Cocklebur plant response rating (cocklebur; [19]) | Oat, Wild plant response rating (wild oat; [20]) | Plant response rating, Sedge, Umbrella [7, 16]
10: Barnyardgrass plant response rating (barnyardgrass [5]; visual rating, 13 to 15 days) | Ducksalad plant response rating (ducksalad [8]; [14])
30: Barnyardgrass plant response rating (barnyardgrass [1]; [20]) | Plant response rating, Crabgrass, Large (large crabgrass; [18]) | Foxtail, Giant plant response rating (giant foxtail; [20]) | Morningglory plant response rating (morningglory; [20]) | Oat, Wild plant response rating (wild oat; [19]) | Plant response rating, Ducksalad (ducksalad [8]; [16])
40: Plant response rating, Barnyardgrass (barnyardgrass [1]; [21]) | Crabgrass, Large plant response rating (large crabgrass; [19]) | Crabgrass, Large plant response rating (large crabgrass; [20]) | Pigweed plant response rating (pigweed; [19]) | Pigweed plant response rating (pigweed; [20]) | Velvetleaf plant response rating (velvetleaf; [20])
70: Plant response rating, Pigweed (pigweed; [18])
